Consider 7 compounds from PMC10763615, “Identification and engineering of potent cyclic peptides with selective or promiscuous binding through biochemical profiling and bioinformatic data analysis” (RSC Chemical Biology, 2023).

The structures appear in SMILES notation. Where two headings read alike, the source gives them in different places. Positions of bridges follow the written chain, without caps; N, C: chain ends. Residues, ends and D or L forms follow the SMILES beside them.

What all share (type): binding
In one assay the target is T1, FGF-R4 ECD (Homo sapiens, UniProt P22455).
T1 construct: DNA constructs for the extracellular domain (ECD) of human FGF-; HPC4 (C); made in house; host or cells: HEK 293-6E
T1 sequence (P22455 22-369 limits assumed): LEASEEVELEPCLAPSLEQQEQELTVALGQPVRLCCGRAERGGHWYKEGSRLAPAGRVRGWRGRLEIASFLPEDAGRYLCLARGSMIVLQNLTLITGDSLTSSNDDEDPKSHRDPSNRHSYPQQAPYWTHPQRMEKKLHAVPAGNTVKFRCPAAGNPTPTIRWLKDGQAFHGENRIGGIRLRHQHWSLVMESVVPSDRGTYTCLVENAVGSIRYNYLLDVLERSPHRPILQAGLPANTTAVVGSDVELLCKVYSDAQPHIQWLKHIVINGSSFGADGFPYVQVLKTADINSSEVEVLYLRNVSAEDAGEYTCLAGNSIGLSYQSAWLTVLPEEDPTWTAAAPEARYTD
Nature of the assay: single concentration BLI of crude peptides. Particulars: read-out: KD (4). A digest of the protocol:
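Streptavidin biosensors carrying biotinylated FGF receptor ECD were immersed in peptide (~1 μM for crude single-point runs, a concentration series for purified peptides) and then in peptide-free buffer. KD was obtained by fitting the BLI association and dissociation curves.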

The next assay addresses T2, FGF-R1C ECD (Homo sapiens, UniProt P11362).
T2 sequence (P11362 22-376 limits assumed): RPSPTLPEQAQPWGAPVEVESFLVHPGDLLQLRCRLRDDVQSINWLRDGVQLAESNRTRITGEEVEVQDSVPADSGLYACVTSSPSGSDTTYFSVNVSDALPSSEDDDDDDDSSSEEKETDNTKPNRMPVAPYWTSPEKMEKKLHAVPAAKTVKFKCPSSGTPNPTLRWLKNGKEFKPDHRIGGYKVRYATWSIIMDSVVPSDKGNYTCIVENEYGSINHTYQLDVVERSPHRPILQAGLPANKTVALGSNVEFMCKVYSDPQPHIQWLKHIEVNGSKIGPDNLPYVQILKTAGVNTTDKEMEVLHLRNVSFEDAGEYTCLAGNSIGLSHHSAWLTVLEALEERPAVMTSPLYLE
Kind of assay: biochemical. The arrangement: DNA constructs for the extracellular domain (ECD) of human FGF-; HPC4 (C); made in house; host or cells: HEK 293-6E. The method, boiled down: (§1)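 Biotinylated FGF-R ECD on streptavidin biosensors was dipped into ~1 μM crude peptide in PBS pH7.4 with 0.05% Tween-20 and 0.01% BSA for association, then into buffer for dissociation, and followed by BLI. Fitted KD values were adjusted for peptide concentration measured by UPLC-CAD.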

In another assay the target is T3, FGF-R3C ECD (Homo sapiens, UniProt P22607).
T3 sequence (P22607 23-375 limits assumed): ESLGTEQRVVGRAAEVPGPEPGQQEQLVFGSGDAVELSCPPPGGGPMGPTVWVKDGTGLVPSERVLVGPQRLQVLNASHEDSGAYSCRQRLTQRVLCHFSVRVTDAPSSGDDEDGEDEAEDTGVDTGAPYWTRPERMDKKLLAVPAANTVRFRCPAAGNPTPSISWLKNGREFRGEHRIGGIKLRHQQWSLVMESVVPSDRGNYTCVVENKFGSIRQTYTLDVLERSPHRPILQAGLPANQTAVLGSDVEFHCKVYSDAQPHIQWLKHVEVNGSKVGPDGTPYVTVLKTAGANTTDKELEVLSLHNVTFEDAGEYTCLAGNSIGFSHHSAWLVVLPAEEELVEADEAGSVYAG
Nature of the assay: biochemical. The arrangement: DNA constructs for the extracellular domain (ECD) of human FGF-; HPC4 (C); made in house; host or cells: HEK 293-6E. A digest of the protocol: as §1

Where [1] appears, read: crude T18 selection 1 (1:1:1) peptides, single concentration BLI (Table S4).

For the compound `CC[C@H](C)[C@@H]1NC(=O)[C@H](Cc2ccc(O)cc2)NC(=O)[C@H](Cc2ccc(O)cc2)NC(=O)[C@H](Cc2ccccc2)NC(=O)[C@H](CC(C)C)NC(=O)[C@H](CC(=O)O)NC(=O)[C@H](CCC(=O)O)NC(=O)[C@@H](NC(=O)[C@H](CCSC)NC(C)=O)CSSC[C@@H](C(=O)NCC(=O)N[C@@H](CO)C(=O)NCC(=O)N[C@@H](CO)C(=O)N[C@@H](CC(=O)O)C(=O)N[C@@H](Cc2ccc(O)cc2)C(=O)N[C@@H](CCCCN)C(=O)N[C@@H](CC(=O)O)C(=O)N[C@@H](CC(=O)O)C(=O)N[C@@H](CC(=O)O)C(=O)N[C@@H](CC(=O)O)C(=O)N[C@@H](CCCCN)C(N)=O)NC(=O)CNC(=O)[C@H](Cc2ccc(O)cc2)NC(=O)[C@H](CCCNC(=N)N)NC(=O)[C@H](CC(N)=O)NC(=O)[C@H]([C@@H](C)CC)NC1=O` (Ac-MCEDLFYYIINRYGCGSGSDYKDDDDK-NH2; disulfide 2-15), the Kd at FGF-R4 ECD (setting [1]) is 0.018 µM; on FGF-R1C ECD, greater than 10 µM; on FGF-R3C ECD, greater than 10 µM.

`CSCC[C@H](NC(C)=O)C(=O)N[C@H]1CSSC[C@@H](C(=O)NCC(=O)N[C@@H](CO)C(=O)NCC(=O)N[C@@H](CO)C(=O)N[C@@H](CC(=O)O)C(=O)N[C@@H](Cc2ccc(O)cc2)C(=O)N[C@@H](CCCCN)C(=O)N[C@@H](CC(=O)O)C(=O)N[C@@H](CC(=O)O)C(=O)N[C@@H](CC(=O)O)C(=O)N[C@@H](CC(=O)O)C(=O)N[C@@H](CCCCN)C(N)=O)NC(=O)[C@H](CCCNC(=N)N)NC(=O)[C@H](Cc2c[nH]cn2)NC(=O)[C@H](Cc2ccccc2)NC(=O)[C@H](CC(C)C)NC(=O)[C@H](CCCCN)NC(=O)[C@H](Cc2ccc(O)cc2)NC(=O)[C@H](Cc2ccc(O)cc2)NC(=O)[C@H](Cc2ccc(O)cc2)NC(=O)[C@H](C(C)C)NC(=O)[C@H](Cc2ccc(O)cc2)NC(=O)[C@H]([C@@H](C)O)NC1=O` (Ac-MCTYVYYYKLFHRCGSGSDYKDDDDK-NH2; disulfide 2-14): the Kd on FGF-R4 ECD (setting [1]) was 0.003 µM; on FGF-R1C ECD it was greater than 10 µM; at FGF-R3C ECD, greater than 10 µM.

For the compound `CC[C@H](C)[C@@H]1NC(=O)[C@H](CCCCN)NC(=O)[C@H](Cc2ccc(O)cc2)NC(=O)[C@H](Cc2c[nH]c3ccccc23)NC(=O)[C@H]([C@@H](C)CC)NC(=O)[C@H](C(C)C)NC(=O)[C@H](CCC(=O)O)NC(=O)[C@@H](NC(=O)[C@H](CCSC)NC(C)=O)CSSC[C@@H](C(=O)NCC(=O)N[C@@H](CO)C(=O)NCC(=O)N[C@@H](CO)C(=O)N[C@@H](CC(=O)O)C(=O)N[C@@H](Cc2ccc(O)cc2)C(=O)N[C@@H](CCCCN)C(=O)N[C@@H](CC(=O)O)C(=O)N[C@@H](CC(=O)O)C(=O)N[C@@H](CC(=O)O)C(=O)N[C@@H](CC(=O)O)C(=O)N[C@@H](CCCCN)C(N)=O)NC(=O)[C@H](CCCCN)NC(=O)[C@H](CCCNC(=N)N)NC(=O)[C@H](Cc2c[nH]c3ccccc23)NC(=O)[C@H](CCC(N)=O)NC1=O` (Ac-MCEVIWYKIQWRKCGSGSDYKDDDDK-NH2; disulfide 2-14), the Kd was 0.012 µM at FGF-R4 ECD (setting [1]), greater than 10 µM at FGF-R1C ECD and greater than 10 µM on FGF-R3C ECD.

With `CC[C@H](C)[C@@H]1NC(=O)[C@H](CO)NC(=O)[C@H]([C@@H](C)CC)NC(=O)[C@H](CC(C)C)NC(=O)[C@@H](NC(=O)[C@H](CCSC)NC(C)=O)CSSC[C@@H](C(=O)NCC(=O)N[C@@H](CO)C(=O)NCC(=O)N[C@@H](CO)C(=O)N[C@@H](CC(=O)O)C(=O)N[C@@H](Cc2ccc(O)cc2)C(=O)N[C@@H](CCCCN)C(=O)N[C@@H](CC(=O)O)C(=O)N[C@@H](CC(=O)O)C(=O)N[C@@H](CC(=O)O)C(=O)N[C@@H](CC(=O)O)C(=O)N[C@@H](CCCCN)C(N)=O)NC(=O)[C@H](Cc2c[nH]cn2)NC(=O)[C@H](CCCCN)NC(=O)[C@H](CC(C)C)NC(=O)[C@H](C(C)C)NC(=O)[C@H](CCCCN)NC(=O)[C@H](Cc2ccc(O)cc2)NC1=O` (Ac-MCLISIYKVLKHCGSGSDYKDDDDK-NH2; disulfide 2-13), the Kd was greater than 10 µM at FGF-R4 ECD (crude NNK peptides, single concentration BLI (Table S3)); greater than 10 µM on FGF-R1C ECD; greater than 10 µM at FGF-R3C ECD.

On to `CC[C@H](C)[C@@H]1NC(=O)[C@H](Cc2c[nH]cn2)NC(=O)[C@H](CCCCN)NC(=O)[C@H](Cc2ccc(O)cc2)NC(=O)[C@@H](NC(=O)[C@H](CCSC)NC(C)=O)CSSC[C@@H](C(=O)NCC(=O)N[C@@H](CO)C(=O)NCC(=O)N[C@@H](CO)C(=O)N[C@@H](CCC(=O)O)C(=O)N[C@@H](CCC(=O)O)C(=O)NCC(=O)N[C@@H](CO)C(=O)NCC(=O)N[C@@H](CO)C(=O)N[C@@H](CC(=O)O)C(=O)N[C@@H](Cc2ccc(O)cc2)C(=O)N[C@@H](CCCCN)C(=O)N[C@@H](CC(=O)O)C(=O)N[C@@H](CC(=O)O)C(=O)N[C@@H](CC(=O)O)C(=O)N[C@@H](CC(=O)O)C(=O)N[C@@H](CCCCN)C(N)=O)NC(=O)[C@H](CC(C)C)NC(=O)[C@H](CCCCN)NC(=O)[C@H](CCC(N)=O)NC(=O)[C@H]([C@@H](C)CC)NC(=O)[C@H](CCCCN)NC(=O)[C@H](Cc2ccc(O)cc2)NC(=O)[C@H](Cc2c[nH]c3ccccc23)NC(=O)[C@H](CC(C)C)NC1=O` (Ac-MCYKHILWYKIQKLCGSGSEEGSGSDYKDDDDK-NH2; disulfide 2-15), for which the Kd at FGF-R4 ECD (setting [1]) was 0.001 µM; on FGF-R1C ECD, 0.033 µM; on FGF-R3C ECD, greater than 10 µM.

As to `CC[C@H](C)[C@@H]1NC(=O)[C@@H](NC(=O)[C@H](CCSC)NC(C)=O)CSSC[C@@H](C(=O)NCC(=O)N[C@@H](CO)C(=O)NCC(=O)N[C@@H](CO)C(=O)N[C@@H](CC(=O)O)C(=O)N[C@@H](Cc2ccc(O)cc2)C(=O)N[C@@H](CCCCN)C(=O)N[C@@H](CC(=O)O)C(=O)N[C@@H](CC(=O)O)C(=O)N[C@@H](CC(=O)O)C(=O)N[C@@H](CC(=O)O)C(=O)N[C@@H](CCCCN)C(N)=O)NC(=O)[C@@H]2CCCN2C(=O)[C@H](CCCNC(=N)N)NC(=O)[C@H](Cc2c[nH]c3ccccc23)NC(=O)[C@H](CCC(=O)O)NC(=O)[C@H](CCC(=O)O)NC(=O)[C@H](Cc2c[nH]c3ccccc23)NC(=O)[C@H](CCCCN)NC(=O)[C@H](CC(N)=O)NC(=O)[C@H](CCCCN)NC(=O)[C@H](CCCNC(=N)N)NC(=O)[C@H]([C@@H](C)O)NC1=O` (Ac-MCITRKNKWEEWRPCGSGSDYKDDDDK-NH2; disulfide 2-15), the Kd on FGF-R4 ECD (setting [1]), at FGF-R1C ECD and on FGF-R3C ECD was greater than 10 µM each time.

With `CSCC[C@H](NC(C)=O)C(=O)N[C@H]1CSSC[C@@H](C(=O)NCC(=O)N[C@@H](CO)C(=O)NCC(=O)N[C@@H](CO)C(=O)N[C@@H](CC(=O)O)C(=O)N[C@@H](Cc2ccc(O)cc2)C(=O)N[C@@H](CCCCN)C(=O)N[C@@H](CC(=O)O)C(=O)N[C@@H](CC(=O)O)C(=O)N[C@@H](CC(=O)O)C(=O)N[C@@H](CC(=O)O)C(=O)N[C@@H](CCCCN)C(N)=O)NC(=O)[C@H](Cc2c[nH]c3ccccc23)NC(=O)[C@H](CC(C)C)NC(=O)[C@H](CCCNC(=N)N)NC(=O)[C@H](Cc2ccc(O)cc2)NC(=O)[C@H](CC(C)C)NC(=O)[C@H](Cc2c[nH]c3ccccc23)NC(=O)[C@H](CC(C)C)NC(=O)[C@H](CC(=O)O)NC(=O)[C@H](CCCCN)NC(=O)[C@H](CO)NC(=O)[C@H](Cc2ccc(O)cc2)NC(=O)[C@H](CCCCN)NC1=O` (Ac-MCKYSKDLWLYRLWCGSGSDYKDDDDK-NH2; disulfide 2-15), the Kd at FGF-R4 ECD (setting [1]) was 0.002 µM; on FGF-R1C ECD, greater than 10 µM; on FGF-R3C ECD, greater than 10 µM.

For orientation: Kd means the constant that tells how readily two partners part at equilibrium.
